According to patent publication US20190054103A1, “METHOD OF TREATMENT OF TP53 WILD-TYPE TUMORS WITH 2',2'-DIFLUORO-5-AZA-2'-DEOXYCYTIDINE OR PRODRUGS THEREOF” (priority 2016, published 2019):

Assays:
TK-10 = assay: NCI 60 Cell Line Panel growth inhibition; assay type: cell-based, human; details: TK-10, Renal cancer, TP53 null/mutant
From the text: (§1) The NCI-60 Cell Line Panel was assembled by the National Cancer Institute as an in vitro anticancer drug screen. The panel comprises human cancer cell lines representing nine different tissues of origin: breast, colon, central nervous system, renal, lung, melanoma, ovarian, prostate, and hematogenous. […] See, e.g., Leroy et al. “Analysis of TP53 Mutation Status in Human Cancer Cell Lines: a Reassesment” Hum Mutat 2014 35(6): 756-765.

ACHN = assay: NCI 60 Cell Line Panel growth inhibition; assay type: cell-based, human; details: Renal cancer, TP53 wild type
From the text: as §1

KM12 = assay: NCI 60 Cell Line Panel growth inhibition; assay type: cell-based, human; details: KM12, Colon cancer, TP53 null/mutant
From the text: as §1

K-562 = assay: NCI 60 Cell Line Panel growth inhibition; assay type: cell-based, human; details: K-562, Leukemia, TP53 null/mutant
From the text: as §1

SK-MEL-5 = assay: NCI 60 Cell Line Panel growth inhibition; assay type: cell-based, human; details: SK-MEL-5, Melanoma, TP53 wild type
From the text: as §1

SK-MEL-28 = assay: NCI 60 Cell Line Panel growth inhibition; assay type: cell-based, human; details: SK-MEL-28, Melanoma, TP53 null/mutant
From the text: as §1

OVCAR-4 = assay: NCI 60 Cell Line Panel growth inhibition; assay type: cell-based, human; details: OVCAR-4, Ovarian cancer, TP53 null/mutant
From the text: as §1

HT29 = assay: NCI 60 Cell Line Panel growth inhibition; assay type: cell-based, human; details: HT29, Colon cancer, TP53 null/mutant
From the text: as §1

RPMI-8226 = assay: NCI 60 Cell Line Panel growth inhibition; assay type: cell-based, human; details: RPMI-8226, Leukemia, TP53 null/mutant
From the text: as §1

MDA-MB-435 = assay: NCI 60 Cell Line Panel growth inhibition; assay type: cell-based, human; details: MDA-MB-435, Melanoma, TP53 null/mutant
From the text: as §1

MCF7 = assay: NCI 60 Cell Line Panel growth inhibition; assay type: cell-based, human; details: MCF7, Breast cancer, TP53 wild type
From the text: as §1

UACC-62 = assay: NCI 60 Cell Line Panel growth inhibition; assay type: cell-based, human; details: UACC-62, Melanoma, TP53 wild type
From the text: as §1

NCI-H226 = assay: NCI 60 Cell Line Panel growth inhibition; assay type: cell-based, human; details: NCI-H226, Lung-NSCL, TP53 null/mutant
From the text: as §1

HCT-116 = assay: NCI 60 Cell Line Panel growth inhibition; assay type: cell-based, human; details: HCT-116, Colon cancer, TP53 wild type
From the text: as §1

HCC-2998 = assay: NCI 60 Cell Line Panel growth inhibition; assay type: cell-based, human; details: HCC-2998, Colon cancer, TP53 null/mutant
From the text: as §1

A549/ATCC = assay: NCI 60 Cell Line Panel growth inhibition; assay type: cell-based, human; details: Lung-NSCL, TP53 wild type
From the text: as §1

CFPAC-1 = assay: Growth inhibition of pancreatic cancer cell line CFPAC-1; assay type: cell-based; details: Homo sapiens
[1] = tested on: TP53 WT colon cancer cell line LoVo; assay: CellTiter-Glo growth inhibition, LoVo; assay type: cell-based; details: Homo sapiens, 72-hour exposure, FIG. 2
Description: Two examples of additional comparisons are provided below for colon cancer cell lines (TP53 WT colon cancer cell line Ls174T and TP53 WT colon cancer cell line LoVo).
In these assays, two 96 well plates of each cell line were seeded with 5,000 cells per well in a total volume of […] per well and left incubating overnight. The following day, the cells were exposed to different concentrations of NUC013. At the end of a 72-hour exposure period, the plates were removed for CellTiter-Glo® assay. Luminescence was recorded on a Synergy 4.0.

[2] = NUC013 administered IV to mice
HeLa cells = assay: Nucleotide concentrations in HeLa cell extracts by HPLC (RNR inhibition); assay type: cell-based; details: 50 μM, 16 h incubation
From the text: The more common approach is to synthesize a nucleoside diphosphate and then determine whether it inhibits RNR or p53R2. […] Nucleic Acids Research. […] The other approach is to expose cells in tissue culture to the drug and then attempt to determine whether deoxynucleotide synthesis is inhibited when compared to control cells. Measurement of deoxynucleotides may be done by radioimmunoassay or by HPLC. The disadvantage of a radioimmunoassay is that it can only measure a single deoxynucleotide triphosphate (dNTP) at a time and typically requires a tritiated nucleotide, but it is the preferred method for measuring dCTP [Piall E M, Aherne G W, Marks V. The quantitative determination of 2′-deoxycytidine-5′ triphosphate in cell extracts by radioimmunoassay. Anal Biochem. 1986; 154(1):276-281 incorporated herein by reference in its entirety]. On the other hand, HPLC can measure multiple nucleotides without requiring radiolabeling, but has been noted to quantitate poorly dC nucleotides, possibly as an artifact of an influx of dCTP from the medium [Bianchi V, Pontis E, Reichard P. Changes of deoxyribonucleoside triphosphate pools induced by hydroxyurea and their relation to DNA synthesis. J Biol Chem. 1986; 261(34): 16037-16042 incorporated herein by reference in its entirety]. This approach was used to determine RNR inhibition by NUC013.
Briefly, HeLa cells ([…]) were grown in the presence or absence of drug, in this case gemcitabine or NUC013. At the end of a 16 h incubation, the medium was aspirated, cells monolayers washed twice with PBS, and used for nucleotide extraction. The nucleotides were extracted from cell monolayers by the addition of ice-cold 80% acetonitrile (ACN) for 1 h. The extracts were centrifuged to remove cellular debris and loaded on a SAX column (100 mg, Supelco) pre-conditioned with methanol, water and ACN. Once the sample was completely effused, the cartridge was washed with 3 ml 80% ACN and 3 ml water and eluted with 1M KCl. The eluent was filtered through a 0.45 μm filter membrane (Roth) and analyzed by HPLC. Peak identification of the different nucleoside mono-, di-, and triphosphates, was made from their characteristic UV absorption spectra and retention times compared with those of a mixture of standards run immediately before cell extracts. The area of individual peaks was measured using ChemStation software (Agilent).

[3] = Pharmacokinetics after SC administration of NUC041 in phospholipid gel depot to mice; details: analyte in plasma following SC administration of NUC041 (100 mg/kg) to mice

Nc1ncn([C@@H]2O[C@H](CO)[C@@H](O)C2(F)F)c(=O)n1 [NUC013, 4-amino-1-((2R,4R,5R)-3,3-difluoro-4-hydroxy-5-(hydroxymethyl)tetrahydrofuran-2-yl)-1,3,5-triazin-2(1H)-one]
Growth (%) at 10 μM (TK-10): 91.13%
Growth (%) at 10 μM (ACHN): 7.28%
Growth (%) at 10 μM (KM12): 61.18%
Growth (%) at 10 μM (K-562): 65.66%
Growth (%) at 10 μM (SK-MEL-5): 70.84%
Growth (%) at 10 μM (SK-MEL-28): 78.46%
Growth (%) at 10 μM (OVCAR-4): 94.88%
Growth (%) at 10 μM (HT29): 70.09%
Growth (%) at 10 μM (RPMI-8226): 39.24%
Growth (%) at 10 μM (MDA-MB-435): 53.04%
Growth (%) at 10 μM (MCF7): 20.74%
Growth (%) at 10 μM (UACC-62): 47.29%
Growth (%) at 10 μM (NCI-H226): 52.34%
Growth (%) at 10 μM (HCT-116): 29.84%
Growth (%) at 10 μM (HCC-2998): 60.44%
Growth (%) at 10 μM (A549/ATCC): 37.91%
GI50 (CFPAC-1): 53.8 µM
GI50 [1]: 3 µM
half-life [2]: 20 min
ADP (HeLa cells): 13,845
ATP (HeLa cells): 21,335
CTP (HeLa cells): 1,279
GTP (HeLa cells): 2,006
UTP (HeLa cells): 4,070
dATP, peak area, AU (HeLa cells): 10.2 AU
dGDP, peak area, AU (HeLa cells): 5.6 AU
dTDP, peak area, AU (HeLa cells): 18.65 AU
dUTP, peak area, AU (HeLa cells): 8.8 AU
AUClast (area under the plasma concentration versus time curve from 0 to last quantifiable sampling time) [3]: 1939 ng·h/mL
